Assay results published in PubChem BioAssay AID2060882 (Molecular Pharmacology Branch, DTP, NCI, 2025).
pIC50: −log10 of the molar value.

System: 898857-211-R-J1-PDC complex spheroids, growth % test/control
Test: Anticancer human tumor 898857-211-R-J1-PDC patient-derived melanoma cell line growth inhibition [RAS]
Details: for pIC50: curve of first compound; for viability, T/C: stronger effect = lower value
Method in brief: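 Multi-cell-type spheroids: tumor cells plus HUVEC endothelial cells and mesenchymal stem cells. RAS-pathway inhibitors were combined with targeted agents, each dosed in half-log steps down from clinical Cmax, or from 10 microM when Cmax was unknown.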

[1] = second compound 0.00316 µM, first compound 0.0316 µM
[2] = second compound 0.00316 µM, first compound 0.1 µM
[3] = second compound 0.01 µM, first compound 0.0316 µM
[4] = second compound 0.01 µM, first compound 0.1 µM
[5] = second compound 0.0316 µM, first compound 0.0316 µM
[6] = second compound 0.0316 µM, first compound 0.1 µM
[7] = second compound 0.1 µM, first compound 0.0316 µM
[8] = second compound 0.1 µM, first compound 0.1 µM
[9] = second compound 0.316 µM, first compound 0.0316 µM
[10] = second compound 0.316 µM, first compound 0.1 µM
[11] = second compound 1 µM, first compound 0.0316 µM
[12] = second compound 1 µM, first compound 0.1 µM
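Note: spheroids exposed to compound for seven days before readout.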
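Throughout, for viability, T/C: 100% = DMSO vehicle control wells.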

CC(C)NCC(C(=O)N1CCN(c2ncnc3c2C(C)CC3O)CC1)c1ccc(Cl)cc1 (centres undefined) + C=CC(=O)N1CCN(c2nc(OCC3CCCN3C)nc3c(F)c(-c4nc(N)cc(C)c4C(F)(F)F)c(Cl)cc23)C(C)C1
pIC50 (second compound 0.00316 µM): < 5.00
pIC50 (second compound 0.01 µM): < 5.00
pIC50 (second compound 0.0316 µM): < 5.00
pIC50 (second compound 0.1 µM): < 5.00
pIC50 (second compound 0.316 µM): < 5.00
pIC50 (second compound 1 µM): < 5.00
viability, T/C [1]: 108%
viability, T/C [2]: 99.8%
viability, T/C (second compound 0.00316 µM, first compound 0.316 µM): 97.5%
viability, T/C (second compound 0.00316 µM, first compound 1 µM): 89.2%
viability, T/C (second compound 0.00316 µM, first compound 3.16 µM): 81.2%
viability, T/C (second compound 0.00316 µM, first compound 10 µM): 70.1%
viability, T/C [3]: 101%
viability, T/C [4]: 104%
viability, T/C (second compound 0.01 µM, first compound 0.316 µM): 104%
viability, T/C (second compound 0.01 µM, first compound 1 µM): 85.8%
viability, T/C (second compound 0.01 µM, first compound 3.16 µM): 85.9%
viability, T/C (second compound 0.01 µM, first compound 10 µM): 70.7%
viability, T/C [5]: 111%
viability, T/C [6]: 101%
viability, T/C (second compound 0.0316 µM, first compound 0.316 µM): 114%
viability, T/C (second compound 0.0316 µM, first compound 1 µM): 103%
viability, T/C (second compound 0.0316 µM, first compound 3.16 µM): 78.9%
viability, T/C (second compound 0.0316 µM, first compound 10 µM): 60.8%
viability, T/C [7]: 118%
viability, T/C [8]: 110%
viability, T/C (second compound 0.1 µM, first compound 0.316 µM): 102%
viability, T/C (second compound 0.1 µM, first compound 1 µM): 88.8%
viability, T/C (second compound 0.1 µM, first compound 3.16 µM): 91.8%
viability, T/C (second compound 0.1 µM, first compound 10 µM): 66.7%
viability, T/C [9]: 114%
viability, T/C [10]: 129%
viability, T/C (second compound 0.316 µM, first compound 0.316 µM): 126%
viability, T/C (second compound 0.316 µM, first compound 1 µM): 112%
viability, T/C (second compound 0.316 µM, first compound 3.16 µM): 93.3%
viability, T/C (second compound 0.316 µM, first compound 10 µM): 71.4%
viability, T/C [11]: 116%
viability, T/C [12]: 121%
viability, T/C (second compound 1 µM, first compound 0.316 µM): 117%
viability, T/C (second compound 1 µM, first compound 1 µM): 112%
viability, T/C (second compound 1 µM, first compound 3.16 µM): 97.5%
viability, T/C (second compound 1 µM, first compound 10 µM): 70.4%

CC(C)n1nc(-c2ccc3oc(N)nc3c2)c2c(N)ncnc21 + C=CC(=O)N1CCN(c2nc(OCC3CCCN3C)nc3c(F)c(-c4nc(N)cc(C)c4C(F)(F)F)c(Cl)cc23)C(C)C1
pIC50 (second compound 0.00316 µM): 7.54
pIC50 (second compound 0.01 µM): 7.47
pIC50 (second compound 0.0316 µM): 7.57
pIC50 (second compound 0.1 µM): 7.46
pIC50 (second compound 0.316 µM): 7.46
pIC50 (second compound 1 µM): 7.42
viability, T/C (second compound 0.00316 µM, first compound 0.000316 µM): 103%
viability, T/C (second compound 0.00316 µM, first compound 0.001 µM): 96.3%
viability, T/C (second compound 0.00316 µM, first compound 0.00316 µM): 99.6%
viability, T/C (second compound 0.00316 µM, first compound 0.01 µM): 75.9%
viability, T/C [1]: 48.5%
viability, T/C [2]: 19.9%
viability, T/C (second compound 0.01 µM, first compound 0.000316 µM): 107%
viability, T/C (second compound 0.01 µM, first compound 0.001 µM): 95.1%
viability, T/C (second compound 0.01 µM, first compound 0.00316 µM): 92.1%
viability, T/C (second compound 0.01 µM, first compound 0.01 µM): 77.9%
viability, T/C [3]: 49.9%
viability, T/C [4]: 21.3%
viability, T/C (second compound 0.0316 µM, first compound 0.000316 µM): 108%
viability, T/C (second compound 0.0316 µM, first compound 0.001 µM): 99.9%
viability, T/C (second compound 0.0316 µM, first compound 0.00316 µM): 91.7%
viability, T/C (second compound 0.0316 µM, first compound 0.01 µM): 77.5%
viability, T/C [5]: 44.2%
viability, T/C [6]: 20.4%
viability, T/C (second compound 0.1 µM, first compound 0.000316 µM): 104%
viability, T/C (second compound 0.1 µM, first compound 0.001 µM): 102%
viability, T/C (second compound 0.1 µM, first compound 0.00316 µM): 97.4%
viability, T/C (second compound 0.1 µM, first compound 0.01 µM): 85%
viability, T/C [7]: 52.7%
viability, T/C [8]: 19.8%
viability, T/C (second compound 0.316 µM, first compound 0.000316 µM): 116%
viability, T/C (second compound 0.316 µM, first compound 0.001 µM): 103%
viability, T/C (second compound 0.316 µM, first compound 0.00316 µM): 109%
viability, T/C (second compound 0.316 µM, first compound 0.01 µM): 89.3%
viability, T/C [9]: 52.4%
viability, T/C [10]: 20.8%
viability, T/C (second compound 1 µM, first compound 0.000316 µM): 122%
viability, T/C (second compound 1 µM, first compound 0.001 µM): 115%
viability, T/C (second compound 1 µM, first compound 0.00316 µM): 111%
viability, T/C (second compound 1 µM, first compound 0.01 µM): 84.5%
viability, T/C [11]: 56%
viability, T/C [12]: 22.7%
